Source: patent publication US6482429B1, “Stable powder inhalation dosage formulation” (Boehringer Ingelheim Pharmaceuticals, Inc., priority 2001, dated 2002)

Key:
[1] = Particle size distribution measured using the Aerosizer with Pulse Jet Disperser; assay type: physicochemical; conditions: average of three measurements
Text: The Pulse Jet Disperser device (Amherst Processing Instruments) was used for powder dispersion. Three measurements were made for each sample and the results were averaged.

[2] = Relative sintering rates under high relative humidity; assay type: physicochemical; conditions: about 23° C., about one day of exposure, compared with lactose
Protocol: Two experiments were carried out, one at about 85% relative humidity and another at about 95% relative humidity. The experiments ran over several days, but the largest increment occurs fairly early. Both experiments were carried out at room temperature (about 23° C.). […] Sintering of cellobiose is slower. […].

Structure (SMILES) | Mean Particle Size [1] [μm] | Relative sintering rate (difference in number fraction Δf versus particle diameter) ([2]; approximately 85% relative humidity) | Relative sintering rate (difference in number fraction Δf versus particle diameter) ([2]; approximately 93% relative humidity)
O.OC[C@H]1O[C@@H](O[C@H]2[C@H](O)[C@@H](O)C(O)O[C@@H]2CO)[C@H](O)[C@@H](O)[C@H]1O (stereo partly shown) [Lactose, lactose monohydrate, reference compound] | 2.044 |  | 
O=C[C@H](O)[C@@H](O)[C@H](O[C@@H]1O[C@H](CO)[C@@H](O)[C@H](O)[C@H]1O)[C@H](O)CO [Cellobiose, cellobiose] | 2.032 | slower | slower
